Tested on: adipocytes
Assay: Lypolysis Assay Kit (dual glycerol and free fatty acids detection), adipocyte lipolytic activity
Assay type: cell-based
Details: forskolin 25, 2.5, 0.25 micromolar; conjugated linoleic acid 10, 1, 0.1 micromolar; 5 hours at 37° C.; optical density at 540 nanometers
Method: Suitable lipolytic agents may be identified by conducting a simple test using a lipolysis assay kit purchased from Zen-Bio. One suitable kit is the Lypolysis Assay Kit (dual glycerol and free fatty acids detection, reagents+cells) purchased from Zen-Bio (www.zen-bio.com) under catalog no. LIP-3.
The adipocyte lipolytic activity of ingredients was tested using Lypolysis Assay Kit (dual glycerol and free fatty acids detection, reagents+cells) purchased from Zen-Bio (www.zen-bio.com) under catalog no. LIP-3. Serial dilutions of forskolin and conjugated linoleic acid were prepared in Krebs-Ringer Buffer containing 1% by weight free fatty acid bovine serum albumin. Culture medium was removed from the plate wells and the cells were washed with phosphate buffered saline. The forskolin test material was added to the test wells to provide wells having a total concentration of 25, 2.5, and 0.25 micromolar. The conjugated linoleic acid test material was added to the test wells to provide concentrations of 10, 1, and 0.1 micromolar. The plate was incubated for 5 hours at 37° C. Fifty microliters of test material was removed from each plate and transferred to clean wells. Triglyceride breakdown was tested by measuring for the presence of glycerol or NEFA (non-esterified fatty acids). […] The optical density of each well of the glycerol and NEFA plate wells was measured at 540 nanometers.

## conjugated linoleic acid
  adipocyte lipolytic activity (triglyceride breakdown, glycerol or NEFA): effective in increasing lipolysis of adipocytes

From US20110268688A1, “METHOD AND COMPOSITIONS FOR IMPROVING SKIN AND BODY APPEARANCE” (priority 2008, published 2011)
